We go through 20 molecules from patent publication US20230406831A1, “COMPOUNDS AND METHODS OF INHIBITING BACTERIAL CHAPERONIN SYSTEMS” (THE TRUSTEES OF INDIANA UNIVERSITY, priority 2020, published 2023).

One test addresses T1, native MDH (Sus scrofa, UniProt P00346).
T1 construct: soluble pig heart MDH from Roche, product #10127248001; purchased Roche 10127248001; host or cells: pig heart
T1 sequence (P00346 25-338): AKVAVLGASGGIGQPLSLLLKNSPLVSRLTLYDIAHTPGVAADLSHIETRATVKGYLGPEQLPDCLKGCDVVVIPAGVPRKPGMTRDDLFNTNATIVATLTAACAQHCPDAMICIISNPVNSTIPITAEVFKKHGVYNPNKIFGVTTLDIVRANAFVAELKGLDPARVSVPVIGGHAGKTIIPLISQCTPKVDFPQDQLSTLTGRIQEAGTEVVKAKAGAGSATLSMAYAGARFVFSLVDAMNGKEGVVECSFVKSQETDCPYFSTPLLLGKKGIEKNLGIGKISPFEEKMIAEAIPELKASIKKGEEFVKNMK
Kind of test: Native MDH enzymatic activity counter-screen. It is filed as biochemical, pig. As to conditions: Table 2; compounds added after refolding and EDTA quench; read-out: Biochemical Assay IC50 Native MDH Activity. The procedure: Counter-screening compounds for inhibition of native MDH enzymatic activity.
Reagent Preparations & Assay Protocol: This assay was performed as described above for the GroEL/ES-dMDH refolding assay; however, the assay protocol differed in the sequence of compound addition to the assay plates. The refolding reactions were allowed to proceed for 45 min at 37° C. in the absence of test compounds (complete refolding of MDH occurs), then quenched with the EDTA stock. Compounds were then pin-transferred into the plates after the EDTA quenching step; thus, compounds effects are only possible by inhibiting the fully-refolded MDH reporter substrate. Next enzymatic activity of the refolded MDH was initiated by addition of 20 μL MDH enzymatic assay stock (20 mM sodium mesoxalate and 2.4 mM NADH in reaction buffer, 50 mM Tris pH 7.4, 50 mM KCl, 1 mM DTT), and followed by measuring the NADH absorbance in each well at 340 nm using a Molecular Devices SpectraMax Plus384 microplate reader
A340 nm measurements were recorded at 0.5 minutes (start point) and at successive time points until the amount of NADH consumed reached ˜90% (end point, generally between 20-35 minutes). Compounds were tested in 8-point, 3-fold dilution series (62.5 μM to 29 nM during the reporter reaction) in clear, flat-bottom 384-well microtiter plates.
DMSO was used as a negative control, and previously discovered native MDH inhibitors were used as positive controls. IC50 values for the test compounds were obtained by plotting the % inhibition results in GraphPad Prism 6 and analyzing by non-linear regression using the log (inhibitor) vs. response (variable slope) equation. Results presented represent the averages of IC50 values obtained from at least quadriplicate (duplicate of duplicate) replicates.

For the next test, the target named is T2, HSP60/10 (Homo sapiens, UniProt P10809).
T2 construct: octa-Histidine (His8) tag, TEV-cleavable (N, cleaved yes); made in house; host or cells: HSP60 in Rosetta 2 (DE3) E. coli; HSP10 in Rosetta 2 (DE3) pLysS
T2 sequence (P10809 27-573): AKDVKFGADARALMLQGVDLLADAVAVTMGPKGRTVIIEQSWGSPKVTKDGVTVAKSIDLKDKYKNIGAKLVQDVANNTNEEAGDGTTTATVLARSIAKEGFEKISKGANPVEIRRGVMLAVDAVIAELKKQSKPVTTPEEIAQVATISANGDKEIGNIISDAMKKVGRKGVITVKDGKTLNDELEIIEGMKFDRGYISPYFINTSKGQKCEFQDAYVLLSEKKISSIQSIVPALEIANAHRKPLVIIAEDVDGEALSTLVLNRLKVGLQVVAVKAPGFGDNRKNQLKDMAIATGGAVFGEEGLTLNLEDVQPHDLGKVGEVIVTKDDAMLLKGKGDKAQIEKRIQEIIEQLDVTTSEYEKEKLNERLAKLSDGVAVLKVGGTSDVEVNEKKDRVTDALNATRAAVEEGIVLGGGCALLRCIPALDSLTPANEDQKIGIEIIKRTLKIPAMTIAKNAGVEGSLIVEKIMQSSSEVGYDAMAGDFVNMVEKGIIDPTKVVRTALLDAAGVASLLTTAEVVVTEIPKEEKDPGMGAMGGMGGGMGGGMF
Kind of test: HSP60/10-mediated dMDH refolding assay. It is filed as biochemical. The conditions noted are these: Table 2; 37° C., 1 mM ATP; read-out: Biochemical Assay IC50 HSP60/10-dMDH Refolding. The procedure:
Evaluation of compounds ability to inhibit GroEL/ES and HSP60/10-mediated dMDH refolding assays.
Reagent preparation: For these assays, four primary reagent stocks were prepared: 1) GroEL/ES-dMDH or HSP60/10-dMDH binary complex stock; 2) ATP initiation stock; 3) EDTA quench stock; 4) MDH enzymatic assay stock. Denatured MDH (dMDH) was prepared by 2-fold dilution of MDH (5 mg/ml, soluble pig heart MDH from Roche, product #10127248001) with denaturant buffer (7 M guanidine-HCl, 200 mM Tris, pH 7.4, and 50 mM DTT). MDH was completely denatured by incubating at room temperature for 45 min. The binary complex solutions were prepared by slowly adding the dMDH stock to a stirring stock with GroEL (or HSP60) in folding buffer (50 mM Tris-HCl, pH 7.4, 50 mM KCl, 10 mM MglC2, and 1 mM DTT), followed by addition of GroES (or HSP10). The binary complex stocks were prepared immediately prior to dispensing into the assay plates and had final protein concentrations of 83.3 nM GroEL (Mr 800 kDa) or HSP60 (Mr 400 kDa), 100 nM GroES or HSP10 (Mr 70 kDa), and 20 nM dMDH in folding buffer. For the ATP initiation stock, ATP solid was diluted into folding buffer to a final concentration of 2.5 mM. Quench solution contained 600 mM EDTA (pH 8.0). The MDH enzymatic assay stock consisted of 20 mM sodium mesoxalate and 2.4 mM NADH in reaction buffer (50 mM Tris-HCl, pH 7.4, 50 mM KC1, and 1 mM DTT).
Assay Protocol: First, 30 μL aliquots of the GroEL/ES-dMDH or HSP60/10-dMDH binary complex stocks were dispensed into clear, 384-well polystyrene plates. Next, 0.5 μL of the compound stocks (10 mM to 4.6 μM, 3-fold dilutions series in DMSO) were added by pin-transfer (V&P Scientific). The chaperonin-mediated refolding cycles were initiated by addition of 20 IA of ATP stock (reagent concentrations during refolding cycle: 50 nM GroEL or HSP60, 60 nM GroES or HSP10, 12 nM dMDH, 1 mM ATP, and compounds of 100 μM to 46 nM, 3-fold dilution series). The refolding reactions were incubated at 37° C. The incubation time was determined from refolding time-course control experiments until they reached ˜90% completion of refolding cycle — generally ˜20-40 min for GroEL/ES, and ˜40-60 min for HSP60/10). Next, the assay was quenched by addition of 10 μL of the EDTA to final concentration of 100 mM. […] A340 nm measurements were recorded at 0.5 minutes (start point) and at successive time points until the amount of NADH consumed reached ˜90% (end point, generally between 20-35 minutes). The differences between the start and end point A340 values were used to calculate the % inhibition of the GroEL/ES or HSP60/10 machinery by the compounds. IC50 values for the test compounds were obtained by plotting the % inhibition results in GraphPad Prism 6 and analyzing by non-linear regression using the log (inhibitor) vs. response (variable slope) equation. Results presented represent the averages of IC50 values obtained from at least quadriplicate (duplicate of duplicate) replicates. For results, see Tables 1, 2, and 3.

Take `COc1ccccc1C(=O)Nc1cc(Cl)c(C(C#N)c2ccc(Cl)cc2)cc1C` (stereo not shown) [Compound 61, N-(5-chloro-4-((4-chlorophenyl)(cyano)methyl)-2-methylphenyl)-2-methoxybenzamide]: the values for the IC50 on native MDH and at HSP60/10 were > 63 µM and > 100 µM, respectively.
On the same counts, the results for `COc1cccc(C(=O)Nc2cc(Cl)c(C(C#N)c3ccc(Cl)cc3)cc2C)c1` (stereo not shown) [Compound 62, N-(5-chloro-4-((4-chlorophenyl)(cyano)methyl)-2-methylphenyl)-3-methoxybenzamide] are > 63 µM and > 100 µM.
On the same counts, the results for `COc1ccc(C(=O)Nc2cc(Cl)c(C(C#N)c3ccc(Cl)cc3)cc2C)cc1` (stereo not shown) [Compound 63, N-(5-chloro-4-((4-chlorophenyl)(cyano)methyl)-2-methylphenyl)-4-methoxybenzamide] are > 63 µM and > 100 µM.
On to `Cc1cc(C(C#N)c2ccc(Cl)cc2)c(Cl)cc1NC(=O)c1ccccc1O` (stereo not shown) [Compound 64, N-(5-chloro-4-((4-chlorophenyl)(cyano)methyl)-2-methylphenyl)-2-hydroxybenzamide], for which the IC50 was > 63 µM at native MDH and 50 µM on HSP60/10.
Turning to `Cc1cc(C(C#N)c2ccc(Cl)cc2)c(Cl)cc1NC(=O)c1cccc(O)c1` (stereo not shown) [Compound 65, N-(5-chloro-4-((4-chlorophenyl)(cyano)methyl)-2-methylphenyl)-3-hydroxybenzamide], the figures for the IC50 at native MDH and on HSP60/10 were > 63 µM and 33 µM, respectively.
On the same counts, the results for `Cc1cc(C(C#N)c2ccc(Cl)cc2)c(Cl)cc1NC(=O)c1ccc(O)cc1` (stereo not shown) [Compound 66, N-(5-chloro-4-((4-chlorophenyl)(cyano)methyl)-2-methylphenyl)-4-hydroxybenzamide] are > 63 µM and 35 µM.
As for `Cc1cc(C(C#N)c2ccc(Cl)cc2)c(Cl)cc1NC(=O)c1ccccc1[N+](=O)[O-]` (stereo not shown) [Compound 67, N-(5-chloro-4-((4-chlorophenyl)(cyano)methyl)-2-methylphenyl)-2-nitrobenzamide], the IC50 on native MDH was > 63 µM; at HSP60/10 it was > 100 µM.
In the case of `Cc1cc(C(C#N)c2ccc(Cl)cc2)c(Cl)cc1NC(=O)c1cccc([N+](=O)[O-])c1` (stereo not shown) [Compound 68, N-(5-chloro-4-((4-chlorophenyl)(cyano)methyl)-2-methylphenyl)-3-nitrobenzamide], the figures for the IC50 on native MDH and on HSP60/10 were > 63 µM and > 100 µM, respectively.
With `Cc1cc(C(C#N)c2ccc(Cl)cc2)c(Cl)cc1NC(=O)c1ccc([N+](=O)[O-])cc1` (stereo not shown) [Compound 69, N-(5-chloro-4-((4-chlorophenyl)(cyano)methyl)-2-methylphenyl)-4-nitrobenzamide], the IC50 at native MDH is > 63 µM; on HSP60/10 it was > 100 µM.
On the same counts, the results for `Cc1cc(C(C#N)c2ccc(Cl)cc2)c(Cl)cc1NC(=O)c1ccccc1N` (stereo not shown) [Compound 70, 2-amino-N-(5-chloro-4-((4-chlorophenyl)(cyano)methyl)-2-methylphenyl)benzamide] are > 63 µM and > 100 µM.
The matching figures for `Cc1cc(C(C#N)c2ccc(Cl)cc2)c(Cl)cc1NC(=O)c1cccc(N)c1` (stereo not shown) [Compound 71, 3-amino-N-(5-chloro-4-((4-chlorophenyl)(cyano)methyl)-2-methylphenyl)benzamide]: > 63 µM and > 100 µM.
On the same counts, the results for `Cc1cc(C(C#N)c2ccc(Cl)cc2)c(Cl)cc1NC(=O)c1ccc(N)cc1` (stereo not shown) [Compound 72, 4-amino-N-(5-chloro-4-((4-chlorophenyl)(cyano)methyl)-2-methylphenyl)benzamide] are > 63 µM and 73 µM.
Turning to `Cc1cc(C(C#N)c2ccc(Cl)cc2)c(Cl)cc1NC(=O)c1ccccc1Br` (stereo not shown) [Compound 73, 2-bromo-N-(5-chloro-4-((4-chlorophenyl)(cyano)methyl)-2-methylphenyl)benzamide], the figures for the IC50 on native MDH and on HSP60/10 were > 63 µM and > 100 µM, respectively.
The matching figures for `Cc1cc(C(C#N)c2ccc(Cl)cc2)c(Cl)cc1NC(=O)c1cccc(Br)c1` (stereo not shown) [Compound 74, 3-bromo-N-(5-chloro-4-((4-chlorophenyl)(cyano)methyl)-2-methylphenyl)benzamide]: > 63 µM and > 100 µM.
As for `Cc1cc(C(C#N)c2ccc(Cl)cc2)c(Cl)cc1NC(=O)c1ccc(Br)cc1` (stereo not shown) [Compound 75, 4-bromo-N-(5-chloro-4-((4-chlorophenyl)(cyano)methyl)-2-methylphenyl)benzamide], the IC50 was > 63 µM at native MDH and > 100 µM at HSP60/10.
On the same counts, the results for `Cc1cc(C(C#N)c2ccc(Cl)cc2)c(Cl)cc1NC(=O)c1ccccc1Cl` (stereo not shown) [Compound 76, 2-chloro-N-(5-chloro-4-((4-chlorophenyl)(cyano)methyl)-2-methylphenyl)benzamide] are > 63 µM and > 100 µM.
On the same counts, the results for `Cc1cc(C(C#N)c2ccc(Cl)cc2)c(Cl)cc1NC(=O)c1cccc(Cl)c1` (stereo not shown) [Compound 77, 3-chloro-N-(5-chloro-4-((4-chlorophenyl)(cyano)methyl)-2-methylphenyl)benzamide] are > 63 µM and > 100 µM.
Consider `Cc1cc(C(C#N)c2ccc(Cl)cc2)c(Cl)cc1NC(=O)c1ccc(Cl)cc1` (stereo not shown) [Compound 78, 4-chloro-N-(5-chloro-4-((4-chlorophenyl)(cyano)methyl)-2-methylphenyl)benzamide], for which the IC50 on native MDH was > 63 µM; on HSP60/10, > 100 µM.
On the same counts, the results for `Cc1cc(C(C#N)c2ccc(Cl)cc2)c(Cl)cc1NC(=O)c1ccccc1F` (stereo not shown) [Compound 79, N-(5-chloro-4-((4-chlorophenyl)(cyano)methyl)-2-methylphenyl)-2-fluorobenzamide] are > 63 µM and > 100 µM.
The matching figures for `Cc1cc(C(C#N)c2ccc(Cl)cc2)c(Cl)cc1NC(=O)c1cccc(F)c1` (stereo not shown) [Compound 80, N-(5-chloro-4-((4-chlorophenyl)(cyano)methyl)-2-methylphenyl)-3-fluorobenzamide]: > 63 µM and > 100 µM.
